Experimental data as given in patent US20240150293A1, “SPIROCYCLOHEXANE DERIVATIVES, PHARMACEUTICAL COMPOSITIONS CONTAINING THEM AND THEIR USES AS ANTI-APOPTOTIC INHIBITORS” (LES LABORATOIRES SERVIER, priority 2021, published 2024).

Each molecule was assayed against Mcl-1 protein (UniProtKB Q07820) (Homo sapiens (Human), UniProt Q07820) (assay: Inhibition of Mcl-1 by the fluorescence polarisation assay (Example A, Method A)). Conditions: fluorescence polarization assay.
Type: binding
Summary of the method: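 Protein (5 nM) and fluorescein-tagged peptide tracer (1 nM) incubated with 11-point compound series for 2 h at room temperature in HEPES/NaCl/Tween 20 buffer, pH 7.4, 5% DMSO. Displacement read as decrease in polarisation; IC50 fitted by 4-parameter logistic, converted to Ki (cKi or eKi).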

Mcl-1 protein, sequence (Q07820 whole entry): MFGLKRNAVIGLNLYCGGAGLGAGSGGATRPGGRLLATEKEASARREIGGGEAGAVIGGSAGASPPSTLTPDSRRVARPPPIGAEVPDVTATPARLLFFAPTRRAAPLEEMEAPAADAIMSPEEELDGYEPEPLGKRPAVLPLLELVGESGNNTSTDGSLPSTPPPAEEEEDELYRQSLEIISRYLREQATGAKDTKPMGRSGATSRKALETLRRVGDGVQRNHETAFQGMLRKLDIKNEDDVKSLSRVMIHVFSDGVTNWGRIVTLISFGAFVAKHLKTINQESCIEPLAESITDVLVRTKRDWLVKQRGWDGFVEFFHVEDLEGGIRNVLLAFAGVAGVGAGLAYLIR

Compound | Ki
O=C(O)C1(Nc2cccc(Br)c2)CCC2(CC1)c1ccccc1CC2c1ccc(Cl)cc1 (stereo not shown) [Example 222, 4-(3-bromoanilino)-2′-(4-chlorophenyl)-2′,3′-dihydrospiro[cyclohexane-1,1′-indene]-4-carboxylic acid] | 2260 nM
COc1ccc(Cl)c(C2Cc3ccccc3[C@]23CC[C@@](Nc2cccc(Cl)c2)(C(=O)O)CC3)c1 (single isomer, unassigned) [Example 259, (1r,4r)-4-(3-chloroanilino)-2′-(2-chloro-5-methoxyphenyl)-2′,3′-dihydrospiro[cyclohexane-1,1′-indene]-4-carboxylic acid] | 9970 nM
COc1ccc(Cl)c(C2Cc3ccccc3[C@]23CC[C@@](Nc2ccccc2)(C(=O)O)CC3)c1 (single isomer, unassigned) [Example 261, (1r,4r)-4-anilino-2′-(2-chloro-5-methoxyphenyl)-2′,3′-dihydrospiro[cyclohexane-1,1′-indene]-4-carboxylic acid] | 9400 nM
O=C(O)[C@]1(Nc2cccc(Cl)c2)CC[C@@]2(CC1)c1ccccc1CC2[C@H]1C[C@@H]1COc1ccccc1 (relative stereo) [Example 110, (1r,4r)-4-(3-chloroanilino)-2′-[(1R*,2S*)-2-(phenoxymethyl)cyclopropyl]-2′,3′-dihydrospiro[cyclohexane-1,1′-indene]-4-carboxylic acid] | 8450 nM
O=C(O)[C@]1(Nc2cccc(Cl)c2)CC[C@@]2(CC1)c1ccccc1CC2c1ccc(OCc2ccccc2)cc1 (single isomer, unassigned) [Example 353, (1r,4r)-2′-[4-(benzyloxy)phenyl]-4-(3-chloroanilino)-2′,3′-dihydrospiro[cyclohexane-1,1′-indene]-4-carboxylic acid] | 8720 nM
Cc1ccc(C)c2c1CC(C)C21CCC(Nc2cccc(Br)c2)(C(=O)O)CC1 (stereo not shown) [Example 123, 4-(3-bromoanilino)-2′,4′,7′-trimethyl-2′,3′-dihydrospiro[cyclohexane-1,1′-indene]-4-carboxylic acid] | 6400 nM
O=C(O)[C@]1(Nc2cccc(Cl)c2)CC[C@]2(CC1)C(=C1CCCC1)Cc1ccccc12 [Example 93, (1r,4r)-4-(3-chloroanilino)-2′-cyclopentylidene-2′,3′-dihydrospiro[cyclohexane-1,1′-indene]-4-carboxylic acid] | 7310 nM
COc1ccc(C2Cc3ccccc3[C@]23CC[C@@](Nc2cccc(Cl)c2)(C(=O)O)CC3)c(C)c1 (single isomer, unassigned) [Example 255, (1r,4r)-4-(3-chloroanilino)-2′-(4-methoxy-2-methylphenyl)-2′,3′-dihydrospiro[cyclohexane-1,1′-indene]-4-carboxylic acid] | 11600 nM
CN1CC2(CCC(Nc3cccc(Br)c3)(C(=O)O)CC2)c2ccccc21 (stereo not shown) [Example 4, 4-(3-bromoanilino)-1′-methyl-1′,2′-dihydrospiro[cyclohexane-1,3′-indole]-4-carboxylic acid] | 5950 nM
O=C(O)[C@]1(Nc2cccc(Cl)c2)CC[C@@]2(CC1)c1ccccc1CC2c1ccc(OCc2ccncc2)cc1 (single isomer, unassigned) [Example 369, (1r,4r)-4-(3-chloroanilino)-2′-{4-[(pyridin-4-yl)methoxy]phenyl}-2′,3′-dihydrospiro[cyclohexane-1,1′-indene]-4-carboxylic acid] | 1910 nM
O=C(O)[C@]1(Nc2cccc(Cl)c2)CC[C@]2(CC1)C(C1CCC1)=Cc1ccccc12 [Example 96, (1r,4r)-4-(3-chloroanilino)-2′-cyclobutylspiro[cyclohexane-1,1′-indene]-4-carboxylic acid] | 4500 nM
O=C(O)[C@]1(Nc2cccc(Cl)c2)CC[C@]2(CC1)C(C1CN(Cc3ccncc3)C1)=Cc1ccccc12 [Example 98, (1r,4r)-4-(3-chloroanilino)-2′-{1-[(pyridin-4-yl)methyl]azetidin-3-yl}spiro[cyclohexane-1,1′-indene]-4-carboxylic acid] | 10400 nM
O=C(O)[C@]1(Nc2cccc(Cl)c2)CC[C@@]2(CC1)c1ccccc1CC2c1ccccc1 (single isomer, unassigned) [Example 327, (1r,4r)-4-(3-chloroanilino)-2′-phenyl-2′,3′-dihydrospiro[cyclohexane-1,1′-indene]-4-carboxylic acid] | 7140 nM
O=C(O)[C@]1(Nc2cccc(Cl)c2)CC[C@@]2(CC1)c1ccccc1CC2c1ccc(Cl)cc1 (single isomer, unassigned) [Example 320, (1r,4r)-4-(3-chloroanilino)-2′-(4-chlorophenyl)-2′,3′-dihydrospiro[cyclohexane-1,1′-indene]-4-carboxylic acid] | 6860 nM
O=C(O)[C@]1(Nc2cccc(Cl)c2)CC[C@]2(CC1)C(c1cc3ccccc3o1)=Cc1ccccc12 [Example 303, (1s,4s)-2′-(1-benzofuran-2-yl)-4-(3-chloroanilino)spiro[cyclohexane-1,1′-indene]-4-carboxylic acid] | 2260 nM
O=C(O)[C@]1(Nc2cccc(Cl)c2)CC[C@@]2(CC1)c1ccccc1CC2[C@H]1C[C@@H]1COc1ccnc2ccsc12 (single isomer, unassigned) [Example 104, (1r,4r)-4-(3-chloroanilino)-2′-[(1R*,2S*)-2-{[(thieno[3,2-b]pyridin-7-yl)oxy]methyl}cyclopropyl]-2′,3′-dihydrospiro[cyclohexane-1,1′-indene]-4-carboxylic acid] | 1360 nM
CC1=C(C(C)C)c2ccccc2[C@]12CC[C@@](Nc1cccc(Br)c1)(C(=O)O)CC2 [Example 204, (1r,4r)-4-(3-bromoanilino)-2′-methyl-3′-(propan-2-yl)spiro[cyclohexane-1,1′-indene]-4-carboxylic acid] | 22400 nM

These reach a lower Ki. Values come first.

Ki | Compound
265 nM | O=C(O)[C@]1(Nc2cccc(Cl)c2)CC[C@]2(CC1)C(Br)=Cc1ccc(Cl)cc12 [Example 134, (1s,4s)-2′-bromo-6′-chloro-4-(3-chloroanilino)spiro[cyclohexane-1,1′-indene]-4-carboxylic acid]
623 nM | Cc1ccc(CCOCC2=Cc3ccccc3[C@]23CC[C@@](Nc2cccc(Cl)c2)(C(=O)O)CC3)cc1 [Example 416, (1s,4s)-4-(3-chloroanilino)-2′-{[2-(4-methylphenyl)ethoxy]methyl}spiro[cyclohexane-1,1′-indene]-4-carboxylic acid]
240 nM | O=C(O)[C@]1(Nc2cccc(Br)c2)CC[C@@]2(CCc3ccc(O)cc32)CC1 [Example 63, (1r,4s)-4-(3-bromoanilino)-6′-hydroxy-2′,3′-dihydrospiro[cyclohexane-1,1′-indene]-4-carboxylic acid]
836 nM | COc1cccc(C2=Cc3ccccc3[C@]23CC[C@@](Nc2cccc(Cl)c2)(C(=O)O)CC3)c1 [Example 253, (1s,4s)-4-(3-chloroanilino)-2′-(3-methoxyphenyl)spiro[cyclohexane-1,1′-indene]-4-carboxylic acid]
227 nM | O=C(O)[C@]1(Nc2cccc(Br)c2)CC[C@]2(CC1)C(I)=Cc1ccccc12 [Example 77, (1s,4s)-4-(3-bromoanilino)-2′-iodospiro[cyclohexane-1,1′-indene]-4-carboxylic acid]
74.3 nM | O=C(O)[C@]1(Nc2cccc(Cl)c2)CC[C@]2(CC1)C(c1cccc(Oc3ccncc3)c1)=Cc1ccccc12 [Example 377, (1s,4s)-4-(3-chloroanilino)-2′-{3-[(pyridin-4-yl)oxy]phenyl}spiro[cyclohexane-1,1′-indene]-4-carboxylic acid]
47.5 nM | C[C@@H](COc1ccnc(C(F)F)c1)C[C@H]1Cc2ccccc2[C@]12CC[C@@](Nc1cccc(Cl)c1)(C(=O)O)CC2 [Example 581, (1r,2′S,4S)-4-(3-chloroanilino)-2′-[(2R)-3-{[2-(difluoromethyl)pyridin-4-yl]oxy}-2-methylpropyl]-2′,3′-dihydrospiro[cyclohexane-1,1′-indene]-4-carboxylic acid]
1110 nM | O=C(O)[C@]1(Nc2cccc(Cl)c2)CC[C@]2(CC1)C(c1ccc(Cl)cc1)=Cc1ccccc12 [Example 298, (1s,4s)-4-(3-chloroanilino)-2′-(4-chlorophenyl)spiro[cyclohexane-1,1′-indene]-4-carboxylic acid]
1020 nM | COc1ccc(C2=Cc3ccccc3[C@]23CC[C@@](Nc2cccc(Cl)c2)(C(=O)O)CC3)cc1C [Example 225, (1s,4s)-4-(3-chloroanilino)-2′-(4-methoxy-3-methylphenyl)spiro[cyclohexane-1,1′-indene]-4-carboxylic acid]
206 nM | O=C(O)[C@]1(Nc2cccc(Cl)c2)CC[C@@]2(CC1)c1ccccc1CC2CCCOc1cc(F)cc(Cl)c1 (stereo partly shown) [Example 430, (1r,4r)-4-(3-chloroanilino)-2′-[3-(3-chloro-5-fluorophenoxy)propyl]-2′,3′-dihydrospiro[cyclohexane-1,1′-indene]-4-carboxylic acid]
92.4 nM | COc1ccc2c(c1)C=C(Br)[C@]21CC[C@](Nc2cccc(Cl)c2)(C(=O)O)CC1 [Example 130, (1s,4s)-2′-bromo-4-(3-chloroanilino)-5′-methoxyspiro[cyclohexane-1,1′-indene]-4-carboxylic acid]
506 nM | O=C(O)[C@]1(Nc2cccc(Cl)c2)CC[C@]2(CC1)C(COCc1ccccc1)=Cc1ccccc12 [Example 179, (1s,4s)-2′-[(benzyloxy)methyl]-4-(3-chloroanilino)spiro[cyclohexane-1,1′-indene]-4-carboxylic acid]
321 nM | O=C(O)[C@]1(Nc2cccc(Cl)c2)CC[C@@]2(CC1)c1ccccc1CC2CCOCc1ccccc1 (stereo partly shown) [Example 396, (1r,4r)-2′-[2-(benzyloxy)ethyl]-4-(3-chloroanilino)-2′,3′-dihydrospiro[cyclohexane-1,1′-indene]-4-carboxylic acid]
311 nM | O=C(O)[C@]1(Nc2cccc(Cl)c2)CC[C@]2(CC1)C(/C=C/c1ccc(-c3ccccc3)cc1)=Cc1ccccc12 [Example 158, (1r,4r)-2′-[(E)-2-([1,1′-biphenyl]-4-yl)ethenyl]-4-(3-chloroanilino)spiro[cyclohexane-1,1′-indene]-4-carboxylic acid]
